{"source": "paper PMC5218480", "about": "(PLoS ONE, 2017)", "tested_on": "MV-4-11 cells", "assay": "Gene expression microarray analysis (Affymetrix PrimeView) and GSEA", "format": "cell-based, human", "design": "RFU PODN (11730768_x_at) / Fold change /veh PODN (11730768_x_at) / RFU LINC00158 (11744669_a_at) / Fold change /veh LINC00158 (11744669_a_at) / RFU DUSP10 (11751237_a_at) / Fold change /veh DUSP10 (11751237_a_at) / RFU ID3 (11757404_x_at) / Fold change /veh ID3 (11757404_x_at) / RFU PLEKHG5 (11737974_s_at) / Fold change /veh PLEKHG5 (11737974_s_at) / RFU LRRC4B (11730491_at) / Fold change /veh LRRC4B (11730491_at) / RFU GIMAP4 (11747438_a_at) / Fold change /veh GIMAP4 (11747438_a_at) / RFU KRT8 (11758183_x_at) / Fold change /veh KRT8 (11758183_x_at) / RFU CNN1 (11734310_a_at) / Fold change /veh CNN1 (11734310_a_at) / RFU VPS37D (11726825_at) / Fold change /veh VPS37D (11726825_at) / RFU C10orf10 (11716522_x_at) / Fold change /veh C10orf10 (11716522_x_at) / RFU KIR2DL2 /// KIR2DL4 /// KIR2DL5A /// KIR2DL5B /// KIR2DS1 /// KIR2DS2 /// KIR2DS3 /// KIR2DS4 /// KIR3DL3 /// KIR3DL3 /// KIR3DS1 (11738374_at) / Fold change /veh KIR2DL2 /// KIR2DL4 /// KIR2DL5A /// KIR2DL5B /// KIR2DS1 /// KIR2DS2 /// KIR2DS3 /// KIR2DS4 /// KIR3DL3 /// KIR3DL3 /// KIR3DS1 (11738374_at) / RFU C1QL1 (11718748_at) / Fold change /veh C1QL1 (11718748_at) / RFU TMPRSS4 (11747572_a_at) / Fold change /veh TMPRSS4 (11747572_a_at) / RFU HAMP (11756126_x_at) / Fold change /veh HAMP (11756126_x_at) / RFU RNFT2 (11725882_a_at) / Fold change /veh RNFT2 (11725882_a_at) / RFU NR4A2 (11747474_a_at) / Fold change /veh NR4A2 (11747474_a_at) / RFU ABCC12 (11746883_a_at) / Fold change /veh ABCC12 (11746883_a_at) / RFU TMEM136 (11760407_x_at) / Fold change /veh TMEM136 (11760407_x_at) / RFU CLDN22 /// WWC2 (11732394_at) / Fold change /veh CLDN22 /// WWC2 (11732394_at) / RFU HLA-DPB1 (11760878_x_at) / Fold change /veh HLA-DPB1 (11760878_x_at) / RFU SPINT1 (11716480_a_at) / Fold change /veh SPINT1 (11716480_a_at) / RFU GAP43 (11754022_s_at) / Fold change /veh GAP43 (11754022_s_at) / RFU A4GNT (11735810_at) / Fold change /veh A4GNT (11735810_at) / RFU PRB3 (11715151_x_at) / Fold change /veh PRB3 (11715151_x_at) / RFU TUBB4B (11761932_at) / Fold change /veh TUBB4B (11761932_at) / RFU CAPN14 (11732068_a_at) / Fold change /veh CAPN14 (11732068_a_at) / RFU TMCC2 (11721928_a_at) / Fold change /veh TMCC2 (11721928_a_at) / RFU IRGQ (11745062_a_at) / Fold change /veh IRGQ (11745062_a_at) / RFU FAM174B (11720279_a_at) / Fold change /veh FAM174B (11720279_a_at) / RFU TMPRSS4 (11748680_a_at) / Fold change /veh TMPRSS4 (11748680_a_at) / RFU FAM212B (11763350_a_at) / Fold change /veh FAM212B (11763350_a_at) / RFU PLEKHG5 (11743358_a_at) / Fold change /veh PLEKHG5 (11743358_a_at) / RFU ZSCAN30 (11745921_a_at) / Fold change /veh ZSCAN30 (11745921_a_at) / RFU CMKLR1 (11741424_a_at) / Fold change /veh CMKLR1 (11741424_a_at) / RFU LOC101060620 /// MAPK8IP1 (11723275_at) / Fold change /veh LOC101060620 /// MAPK8IP1 (11723275_at) / RFU SPTSSB (11747773_x_at) / Fold change /veh SPTSSB (11747773_x_at) / RFU PRSS12 (11739890_at) / Fold change /veh PRSS12 (11739890_at) / RFU BIN1 (11741810_x_at) / Fold change /veh BIN1 (11741810_x_at) / RFU WNT11 (11732464_a_at) / Fold change /veh WNT11 (11732464_a_at) / RFU C10orf10 (11716521_a_at) / Fold change /veh C10orf10 (11716521_a_at) / RFU C5orf56 (11738089_at) / Fold change /veh C5orf56 (11738089_at) / RFU CYB561 (11721691_x_at) / Fold change /veh CYB561 (11721691_x_at) / RFU ANKRD19P (11752326_a_at) / Fold change /veh ANKRD19P (11752326_a_at) / RFU OR2T12 /// OR2T33 /// OR2T8 (11738714_s_at) / Fold change /veh OR2T12 /// OR2T33 /// OR2T8 (11738714_s_at) / RFU VCAN (11748164_a_at) / Fold change /veh VCAN (11748164_a_at) / RFU JSRP1 (11732532_at) / Fold change /veh JSRP1 (11732532_at) / RFU KRTAP10-11 (11738290_x_at) / Fold change /veh KRTAP10-11 (11738290_x_at) / RFU MYO3A (11730013_a_at) / Fold change /veh MYO3A (11730013_a_at) / RFU EBF3 (11725865_a_at) / Fold change /veh EBF3 (11725865_a_at) / RFU CAMK2N1 (11719241_x_at) / Fold change /veh CAMK2N1 (11719241_x_at) / RFU C5orf56 (11738088_a_at) / Fold change /veh C5orf56 (11738088_a_at) / RFU OLFML3 (11715873_a_at) / Fold change /veh OLFML3 (11715873_a_at) / RFU LOC100653217 /// NTM (11731650_a_at) / Fold change /veh LOC100653217 /// NTM (11731650_a_at) / RFU MAPK11 (11762145_a_at) / Fold change /veh MAPK11 (11762145_a_at) / RFU FIZ1 (11724087_x_at) / Fold change /veh FIZ1 (11724087_x_at) / RFU OASL (11726364_x_at) / Fold change /veh OASL (11726364_x_at) / RFU SOX15 (11748057_x_at) / Fold change /veh SOX15 (11748057_x_at) / RFU CD79A (11719716_a_at) / Fold change /veh CD79A (11719716_a_at) / RFU HIST1H1D (11736915_at) / Fold change /veh HIST1H1D (11736915_at) / RFU CASKIN2 (11723855_a_at) / Fold change /veh CASKIN2 (11723855_a_at) / RFU LOC730098 (11760151_x_at) / Fold change /veh LOC730098 (11760151_x_at) / RFU OR4N2 (11742367_at) / Fold change /veh OR4N2 (11742367_at) / RFU PRRT2 (11749266_a_at) / Fold change /veh PRRT2 (11749266_a_at) / RFU SNX32 (11753110_a_at) / Fold change /veh SNX32 (11753110_a_at) / RFU CDHR5 (11726645_a_at) / Fold change /veh CDHR5 (11726645_a_at) / RFU RCAN1 (11760418_a_at) / Fold change /veh RCAN1 (11760418_a_at) / RFU FAM167A (11723789_a_at) / Fold change /veh FAM167A (11723789_a_at) / RFU FAM26E (11764081_at) / Fold change /veh FAM26E (11764081_at) / RFU ISYNA1 (11749810_s_at) / Fold change /veh ISYNA1 (11749810_s_at) / RFU ACY1 (11761880_at) / Fold change /veh ACY1 (11761880_at) / RFU 11764098_at / Fold change /veh 11764098_at / RFU SAMD14 (11745864_x_at) / Fold change /veh SAMD14 (11745864_x_at) / RFU NPB (11741838_a_at) / Fold change /veh NPB (11741838_a_at) / RFU TMPRSS6 (11731388_a_at) / Fold change /veh TMPRSS6 (11731388_a_at) / RFU KRTAP10-2 (11738614_at) / Fold change /veh KRTAP10-2 (11738614_at) / RFU ARHGAP8 /// PRR5-ARHGAP8 (11727945_x_at) / Fold change /veh ARHGAP8 /// PRR5-ARHGAP8 (11727945_x_at) / RFU KRTAP5-7 /// NADSYN1 (11734609_at) / Fold change /veh KRTAP5-7 /// NADSYN1 (11734609_at) / RFU RASL12 (11751679_a_at) / Fold change /veh RASL12 (11751679_a_at) / RFU CDKN2B (11736163_a_at) / Fold change /veh CDKN2B (11736163_a_at) / RFU PRF1 (11729649_at) / Fold change /veh PRF1 (11729649_at) / RFU, ZNF638 /// ZNF638-IT1 / Fold change vs veh, ZNF638 /// ZNF638-IT1 / RFU, PANK3 / Fold change vs veh, PANK3 / RFU, SH3YL1 / Fold change vs veh, SH3YL1 / RFU, ZEB2 / Fold change vs veh, ZEB2 / RFU, NRIP1 / Fold change vs veh, NRIP1 / RFU, PTTG1IP / Fold change vs veh, PTTG1IP / RFU, CAPN2 / Fold change vs veh, CAPN2 / RFU, MED14 / Fold change vs veh, MED14 / RFU, SNORA58 / Fold change vs veh, SNORA58 / RFU, C1orf63 / Fold change vs veh, C1orf63 / RFU, LRRFIP1 / Fold change vs veh, LRRFIP1 / RFU, NDUFAF7 / Fold change vs veh, NDUFAF7 / RFU, SLC12A2 / Fold change vs veh, SLC12A2 / RFU, IBTK / Fold change vs veh, IBTK / RFU, ESF1 / Fold change vs veh, ESF1 / Fold change vs veh, TMEM50B / RFU, TAOK1 / Fold change vs veh, TAOK1 / RFU, ACBD3 / Fold change vs veh, ACBD3 / RFU, TMA16 / Fold change vs veh, TMA16 / RFU, RWDD3 / Fold change vs veh, RWDD3 / RFU, BCAT1 / Fold change vs veh, BCAT1 / RFU, EDEM3 / Fold change vs veh, EDEM3 / RFU, TMEM33 / Fold change vs veh, TMEM33 / RFU, WDR75 / Fold change vs veh, WDR75 / RFU, AHCTF1 / Fold change vs veh, AHCTF1 / RFU, TFRC / Fold change vs veh, TFRC / RFU, ZDHHC17 / Fold change vs veh, ZDHHC17 / RFU, NOM1 / Fold change vs veh, NOM1 / RFU, ARL8B / Fold change vs veh, ARL8B / RFU, ZBTB11 / Fold change vs veh, ZBTB11 / RFU, TAMM41 / Fold change vs veh, TAMM41 / RFU, KIAA1704 /// LOC100996395 / Fold change vs veh, KIAA1704 /// LOC100996395 / RFU, ING1 / Fold change vs veh, ING1 / RFU, TRMT61B / Fold change vs veh, TRMT61B / RFU, FUBP3 / Fold change vs veh, FUBP3 / RFU, TP53 / Fold change vs veh, TP53 / RFU, TNKS2 / Fold change vs veh, TNKS2 / RFU, ZFP14 / Fold change vs veh, ZFP14 / RFU, ACTR2 / Fold change vs veh, ACTR2 / RFU, PPP3R1 / Fold change vs veh, PPP3R1 / RFU, PIK3R1 / Fold change vs veh, PIK3R1 / RFU, HNRNPA1 / Fold change vs veh, HNRNPA1 / RFU, RNF170 / Fold change vs veh, RNF170 / RFU, ZNF28 / Fold change vs veh, ZNF28 / RFU, RNGTT / Fold change vs veh, RNGTT / RFU, OGT / Fold change vs veh, OGT / RFU, BRD1 / Fold change vs veh, BRD1 / RFU, MARS / Fold change vs veh, MARS / RFU, ZNF655 / Fold change vs veh, ZNF655 / RFU, FAHD1 / Fold change vs veh, FAHD1 / RFU, BDP1 / Fold change vs veh, BDP1 / RFU, LRRCC1 / Fold change vs veh, LRRCC1 / RFU, ARID1A / Fold change vs veh, ARID1A / RFU, ZNF146 / Fold change vs veh, ZNF146 / RFU, ZNF330 / Fold change vs veh, ZNF330 / RFU, GPN3 / Fold change vs veh, GPN3 / RFU, C9orf123 / Fold change vs veh, C9orf123 / RFU, N4BP2L2 / Fold change vs veh, N4BP2L2 / RFU, ARFIP1 / Fold change vs veh, ARFIP1 / RFU, FAM179B / Fold change vs veh, FAM179B / RFU, BCL10 / Fold change vs veh, BCL10 / RFU, UHRF1BP1L / Fold change vs veh, UHRF1BP1L / RFU, BET1 / Fold change vs veh, BET1 / RFU, CNOT2 / Fold change vs veh, CNOT2 / RFU, ZNF268 / Fold change vs veh, ZNF268 / Fold change vs veh, ZNF507 / RFU, DGCR2 / Fold change vs veh, DGCR2 / RFU, WDSUB1 / Fold change vs veh, WDSUB1 / Fold change vs veh, HSP90B1 /// MIR3652 / RFU, ADSS / Fold change vs veh, ADSS / RFU, GK / Fold change vs veh, GK / RFU, ZNF148 / Fold change vs veh, ZNF148 / RFU, TAF9 / Fold change vs veh, TAF9 / RFU, SLC1A5 / Fold change vs veh, SLC1A5 / RFU, SLMO2 / Fold change vs veh, SLMO2 / RFU, ABCC4 / Fold change vs veh, ABCC4 / RFU, LOC101060439 /// RAP1B / Fold change vs veh, LOC101060439 /// RAP1B / RFU, RFX7 / Fold change vs veh, RFX7 / RFU, GTPBP10 / Fold change vs veh, GTPBP10 / RFU, CNEP1R1 / Fold change vs veh, CNEP1R1 / RFU, BIVM-ERCC5 /// ERCC5 / Fold change vs veh, BIVM-ERCC5 /// ERCC5 / RFU, ILF3 / Fold change vs veh, ILF3 / RFU 11762660_at / Fold change /veh 11762660_at / RFU VCAN (11757783_s_at) / Fold change /veh VCAN (11757783_s_at) / RFU DDX43 (11728927_at) / Fold change /veh DDX43 (11728927_at) / RFU KRT8 (11758188_x_at) / Fold change /veh KRT8 (11758188_x_at) / RFU NKD1 (11759106_at) / Fold change /veh NKD1 (11759106_at) / RFU SRD5A1 (11742802_a_at) / Fold change /veh SRD5A1 (11742802_a_at) / RFU TPSAB1 /// TPSB2 (11721975_s_at) / Fold change /veh TPSAB1 /// TPSB2 (11721975_s_at) / RFU GSTM3 (11746129_a_at) / Fold change /veh GSTM3 (11746129_a_at) / RFU IL23R (11737362_x_at) / Fold change /veh IL23R (11737362_x_at) / RFU TMEM51 (11727254_a_at) / Fold change /veh TMEM51 (11727254_a_at) / RFU PIWIL2 (11732686_x_at) / Fold change /veh PIWIL2 (11732686_x_at) / RFU ORM1 (11744905_x_at) / Fold change /veh ORM1 (11744905_x_at) / RFU CCDC152 (11743942_at) / Fold change /veh CCDC152 (11743942_at) / RFU ECM1 (11717891_a_at) / Fold change /veh ECM1 (11717891_a_at) / RFU IL23R (11748794_a_at) / Fold change /veh IL23R (11748794_a_at) / RFU TNFAIP8L3 (11732012_x_at) / Fold change /veh TNFAIP8L3 (11732012_x_at) / RFU MBOAT4 (11741988_at) / Fold change /veh MBOAT4 (11741988_at) / RFU 11764193_at / Fold change /veh 11764193_at / RFU TMEM53 (11763286_at) / Fold change /veh TMEM53 (11763286_at) / RFU MAGEB2 (11727129_at) / Fold change /veh MAGEB2 (11727129_at) / RFU TMEM200A (11744735_a_at) / Fold change /veh TMEM200A (11744735_a_at) / RFU CCDC152 (11751479_a_at) / Fold change /veh CCDC152 (11751479_a_at) / RFU FAM211A (11726209_a_at) / Fold change /veh FAM211A (11726209_a_at) / RFU RGS16 (11746705_a_at) / Fold change /veh RGS16 (11746705_a_at) / RFU VCAN (11755009_s_at) / Fold change /veh VCAN (11755009_s_at) / RFU RHOB (11743442_s_at) / Fold change /veh RHOB (11743442_s_at) / RFU RGS16 (11720943_a_at) / Fold change /veh RGS16 (11720943_a_at) / RFU RGS16 (11720944_at) / Fold change /veh RGS16 (11720944_at) / RFU, VPS4B / Fold change vs veh, VPS4B / RFU, CREB1 / Fold change vs veh, CREB1 / RFU, DNAJC13 / Fold change vs veh, DNAJC13 / RFU, GNAQ / Fold change vs veh, GNAQ / RFU, CDK5R1 / Fold change vs veh, CDK5R1 / RFU, ZRANB3 / Fold change vs veh, ZRANB3 / RFU, CUL4A / Fold change vs veh, CUL4A / RFU, CCNY / Fold change vs veh, CCNY / RFU, UFL1 / Fold change vs veh, UFL1 / RFU, COG3 / Fold change vs veh, COG3 / RFU, DIAPH2 / Fold change vs veh, DIAPH2 / RFU, SKA2 / Fold change vs veh, SKA2 / RFU, AFF3 / Fold change vs veh, AFF3 / RFU, LMF1 / Fold change vs veh, LMF1 / RFU, IPO11 / Fold change vs veh, IPO11 / RFU, DFFB / Fold change vs veh, DFFB / RFU, FOXP1 / Fold change vs veh, FOXP1 / RFU, CARD8 / Fold change vs veh, CARD8 / RFU, STRN3 / Fold change vs veh, STRN3 / RFU, ADK / Fold change vs veh, ADK / RFU, RASSF2 / Fold change vs veh, RASSF2 / RFU, WIPF1 / Fold change vs veh, WIPF1 / RFU, LARP1B / Fold change vs veh, LARP1B / RFU, RASA1 / Fold change vs veh, RASA1 / RFU, RB1 / Fold change vs veh, RB1 / RFU, PPFIA1 / Fold change vs veh, PPFIA1 / RFU, MAT2A / Fold change vs veh, MAT2A / RFU, CCT5 / Fold change vs veh, CCT5 / RFU, WDR92 / Fold change vs veh, WDR92 / RFU, CUX1 / Fold change vs veh, CUX1 / RFU, TTC7A / Fold change vs veh, TTC7A / RFU, TMEM135 / Fold change vs veh, TMEM135 / RFU, DEPTOR / Fold change vs veh, DEPTOR / RFU, CPM / Fold change vs veh, CPM / RFU, DNAJB6 / Fold change vs veh, DNAJB6 / RFU, CACNA2D3 / Fold change vs veh, CACNA2D3 / RFU, DTX4 / Fold change vs veh, DTX4 / RFU, TFCP2 / Fold change vs veh, TFCP2 / RFU, GMCL1 /// GMCL1P1 / Fold change vs veh, GMCL1 /// GMCL1P1 / RFU, AEBP2 / Fold change vs veh, AEBP2 / RFU, SNHG1 /// SNORD22 /// SNORD25 /// SNORD26 /// SNORD27 /// SNORD28 /// SNORD29 /// SNORD31 / Fold change vs veh, SNHG1 /// SNORD22 /// SNORD25 /// SNORD26 /// SNORD27 /// SNORD28 /// SNORD29 /// SNORD31 / Fold change (Aza/veh), C12orf56 (ProbeSet 11735607_a_at) / Fold change (ACY-1035/veh), C12orf56 (ProbeSet 11735607_a_at) / Fold change (Aza/veh), FGFR1OP (ProbeSet 11751329_s_at) / Fold change (ACY-1035/veh), FGFR1OP (ProbeSet 11751329_s_at) / Fold change (Aza/veh), VPS36 (ProbeSet 11739960_a_at) / Fold change (ACY-1035/veh), VPS36 (ProbeSet 11739960_a_at) / RFU SYPL1 (11715823_x_at) / Fold change /veh SYPL1 (11715823_x_at) / RFU IGFBP7 (11715501_s_at) / Fold change /veh IGFBP7 (11715501_s_at) / RFU REEP3 (11722064_at) / Fold change /veh REEP3 (11722064_at) / RFU IGLL1 (11728026_x_at) / Fold change /veh IGLL1 (11728026_x_at): dose or concentration left out as unconfirmed", "settings": "MV-4-11 cells, 48 hours"}
{"smiles": "Nc1ccc(-c2cccs2)cc1NC(=O)c1ccc2c(c1)cc(C1CC1)n2CCN1CCOCC1", "note": "[ACY-1035]", "values": [{"measurement": "Fold change /veh NR4A2 (11747474_a_at)", "value": 0.99}]}
